System: MV-4-11 cells
Test: Gene expression microarray analysis (Affymetrix PrimeView) and GSEA
Format: cell-based, human
Parameters: RFU PODN (11730768_x_at) / Fold change /veh PODN (11730768_x_at) / RFU LINC00158 (11744669_a_at) / Fold change /veh LINC00158 (11744669_a_at) / RFU DUSP10 (11751237_a_at) / Fold change /veh DUSP10 (11751237_a_at) / RFU ID3 (11757404_x_at) / Fold change /veh ID3 (11757404_x_at) / RFU PLEKHG5 (11737974_s_at) / Fold change /veh PLEKHG5 (11737974_s_at) / RFU LRRC4B (11730491_at) / Fold change /veh LRRC4B (11730491_at) / RFU GIMAP4 (11747438_a_at) / Fold change /veh GIMAP4 (11747438_a_at) / RFU KRT8 (11758183_x_at) / Fold change /veh KRT8 (11758183_x_at) / RFU CNN1 (11734310_a_at) / Fold change /veh CNN1 (11734310_a_at) / RFU VPS37D (11726825_at) / Fold change /veh VPS37D (11726825_at) / RFU C10orf10 (11716522_x_at) / Fold change /veh C10orf10 (11716522_x_at) / RFU KIR2DL2 /// KIR2DL4 /// KIR2DL5A /// KIR2DL5B /// KIR2DS1 /// KIR2DS2 /// KIR2DS3 /// KIR2DS4 /// KIR3DL3 /// KIR3DL3 /// KIR3DS1 (11738374_at) / Fold change /veh KIR2DL2 /// KIR2DL4 /// KIR2DL5A /// KIR2DL5B /// KIR2DS1 /// KIR2DS2 /// KIR2DS3 /// KIR2DS4 /// KIR3DL3 /// KIR3DL3 /// KIR3DS1 (11738374_at) / RFU C1QL1 (11718748_at) / Fold change /veh C1QL1 (11718748_at) / RFU TMPRSS4 (11747572_a_at) / Fold change /veh TMPRSS4 (11747572_a_at) / RFU HAMP (11756126_x_at) / Fold change /veh HAMP (11756126_x_at) / RFU RNFT2 (11725882_a_at) / Fold change /veh RNFT2 (11725882_a_at) / RFU NR4A2 (11747474_a_at) / Fold change /veh NR4A2 (11747474_a_at) / RFU ABCC12 (11746883_a_at) / Fold change /veh ABCC12 (11746883_a_at) / RFU TMEM136 (11760407_x_at) / Fold change /veh TMEM136 (11760407_x_at) / RFU CLDN22 /// WWC2 (11732394_at) / Fold change /veh CLDN22 /// WWC2 (11732394_at) / RFU HLA-DPB1 (11760878_x_at) / Fold change /veh HLA-DPB1 (11760878_x_at) / RFU SPINT1 (11716480_a_at) / Fold change /veh SPINT1 (11716480_a_at) / RFU GAP43 (11754022_s_at) / Fold change /veh GAP43 (11754022_s_at) / RFU A4GNT (11735810_at) / Fold change /veh A4GNT (11735810_at) / RFU PRB3 (11715151_x_at) / Fold change /veh PRB3 (11715151_x_at) / RFU TUBB4B (11761932_at) / Fold change /veh TUBB4B (11761932_at) / RFU CAPN14 (11732068_a_at) / Fold change /veh CAPN14 (11732068_a_at) / RFU TMCC2 (11721928_a_at) / Fold change /veh TMCC2 (11721928_a_at) / RFU IRGQ (11745062_a_at) / Fold change /veh IRGQ (11745062_a_at) / RFU FAM174B (11720279_a_at) / Fold change /veh FAM174B (11720279_a_at) / RFU TMPRSS4 (11748680_a_at) / Fold change /veh TMPRSS4 (11748680_a_at) / RFU FAM212B (11763350_a_at) / Fold change /veh FAM212B (11763350_a_at) / RFU PLEKHG5 (11743358_a_at) / Fold change /veh PLEKHG5 (11743358_a_at) / RFU ZSCAN30 (11745921_a_at) / Fold change /veh ZSCAN30 (11745921_a_at) / RFU CMKLR1 (11741424_a_at) / Fold change /veh CMKLR1 (11741424_a_at) / RFU LOC101060620 /// MAPK8IP1 (11723275_at) / Fold change /veh LOC101060620 /// MAPK8IP1 (11723275_at) / RFU SPTSSB (11747773_x_at) / Fold change /veh SPTSSB (11747773_x_at) / RFU PRSS12 (11739890_at) / Fold change /veh PRSS12 (11739890_at) / RFU BIN1 (11741810_x_at) / Fold change /veh BIN1 (11741810_x_at) / RFU WNT11 (11732464_a_at) / Fold change /veh WNT11 (11732464_a_at) / RFU C10orf10 (11716521_a_at) / Fold change /veh C10orf10 (11716521_a_at) / RFU C5orf56 (11738089_at) / Fold change /veh C5orf56 (11738089_at) / RFU CYB561 (11721691_x_at) / Fold change /veh CYB561 (11721691_x_at) / RFU ANKRD19P (11752326_a_at) / Fold change /veh ANKRD19P (11752326_a_at) / RFU OR2T12 /// OR2T33 /// OR2T8 (11738714_s_at) / Fold change /veh OR2T12 /// OR2T33 /// OR2T8 (11738714_s_at) / RFU VCAN (11748164_a_at) / Fold change /veh VCAN (11748164_a_at) / RFU JSRP1 (11732532_at) / Fold change /veh JSRP1 (11732532_at) / RFU KRTAP10-11 (11738290_x_at) / Fold change /veh KRTAP10-11 (11738290_x_at) / RFU MYO3A (11730013_a_at) / Fold change /veh MYO3A (11730013_a_at) / RFU EBF3 (11725865_a_at) / Fold change /veh EBF3 (11725865_a_at) / RFU CAMK2N1 (11719241_x_at) / Fold change /veh CAMK2N1 (11719241_x_at) / RFU C5orf56 (11738088_a_at) / Fold change /veh C5orf56 (11738088_a_at) / RFU OLFML3 (11715873_a_at) / Fold change /veh OLFML3 (11715873_a_at) / RFU LOC100653217 /// NTM (11731650_a_at) / Fold change /veh LOC100653217 /// NTM (11731650_a_at) / RFU MAPK11 (11762145_a_at) / Fold change /veh MAPK11 (11762145_a_at) / RFU FIZ1 (11724087_x_at) / Fold change /veh FIZ1 (11724087_x_at) / RFU OASL (11726364_x_at) / Fold change /veh OASL (11726364_x_at) / RFU SOX15 (11748057_x_at) / Fold change /veh SOX15 (11748057_x_at) / RFU CD79A (11719716_a_at) / Fold change /veh CD79A (11719716_a_at) / RFU HIST1H1D (11736915_at) / Fold change /veh HIST1H1D (11736915_at) / RFU CASKIN2 (11723855_a_at) / Fold change /veh CASKIN2 (11723855_a_at) / RFU LOC730098 (11760151_x_at) / Fold change /veh LOC730098 (11760151_x_at) / RFU OR4N2 (11742367_at) / Fold change /veh OR4N2 (11742367_at) / RFU PRRT2 (11749266_a_at) / Fold change /veh PRRT2 (11749266_a_at) / RFU SNX32 (11753110_a_at) / Fold change /veh SNX32 (11753110_a_at) / RFU CDHR5 (11726645_a_at) / Fold change /veh CDHR5 (11726645_a_at) / RFU RCAN1 (11760418_a_at) / Fold change /veh RCAN1 (11760418_a_at) / RFU FAM167A (11723789_a_at) / Fold change /veh FAM167A (11723789_a_at) / RFU FAM26E (11764081_at) / Fold change /veh FAM26E (11764081_at) / RFU ISYNA1 (11749810_s_at) / Fold change /veh ISYNA1 (11749810_s_at) / RFU ACY1 (11761880_at) / Fold change /veh ACY1 (11761880_at) / RFU 11764098_at / Fold change /veh 11764098_at / RFU SAMD14 (11745864_x_at) / Fold change /veh SAMD14 (11745864_x_at) / RFU NPB (11741838_a_at) / Fold change /veh NPB (11741838_a_at) / RFU TMPRSS6 (11731388_a_at) / Fold change /veh TMPRSS6 (11731388_a_at) / RFU KRTAP10-2 (11738614_at) / Fold change /veh KRTAP10-2 (11738614_at) / RFU ARHGAP8 /// PRR5-ARHGAP8 (11727945_x_at) / Fold change /veh ARHGAP8 /// PRR5-ARHGAP8 (11727945_x_at) / RFU KRTAP5-7 /// NADSYN1 (11734609_at) / Fold change /veh KRTAP5-7 /// NADSYN1 (11734609_at) / RFU RASL12 (11751679_a_at) / Fold change /veh RASL12 (11751679_a_at) / RFU CDKN2B (11736163_a_at) / Fold change /veh CDKN2B (11736163_a_at) / RFU PRF1 (11729649_at) / Fold change /veh PRF1 (11729649_at) / RFU, ZNF638 /// ZNF638-IT1 / Fold change vs veh, ZNF638 /// ZNF638-IT1 / RFU, PANK3 / Fold change vs veh, PANK3 / RFU, SH3YL1 / Fold change vs veh, SH3YL1 / RFU, ZEB2 / Fold change vs veh, ZEB2 / RFU, NRIP1 / Fold change vs veh, NRIP1 / RFU, PTTG1IP / Fold change vs veh, PTTG1IP / RFU, CAPN2 / Fold change vs veh, CAPN2 / RFU, MED14 / Fold change vs veh, MED14 / RFU, SNORA58 / Fold change vs veh, SNORA58 / RFU, C1orf63 / Fold change vs veh, C1orf63 / RFU, LRRFIP1 / Fold change vs veh, LRRFIP1 / RFU, NDUFAF7 / Fold change vs veh, NDUFAF7 / RFU, SLC12A2 / Fold change vs veh, SLC12A2 / RFU, IBTK / Fold change vs veh, IBTK / RFU, ESF1 / Fold change vs veh, ESF1 / Fold change vs veh, TMEM50B / RFU, TAOK1 / Fold change vs veh, TAOK1 / RFU, ACBD3 / Fold change vs veh, ACBD3 / RFU, TMA16 / Fold change vs veh, TMA16 / RFU, RWDD3 / Fold change vs veh, RWDD3 / RFU, BCAT1 / Fold change vs veh, BCAT1 / RFU, EDEM3 / Fold change vs veh, EDEM3 / RFU, TMEM33 / Fold change vs veh, TMEM33 / RFU, WDR75 / Fold change vs veh, WDR75 / RFU, AHCTF1 / Fold change vs veh, AHCTF1 / RFU, TFRC / Fold change vs veh, TFRC / RFU, ZDHHC17 / Fold change vs veh, ZDHHC17 / RFU, NOM1 / Fold change vs veh, NOM1 / RFU, ARL8B / Fold change vs veh, ARL8B / RFU, ZBTB11 / Fold change vs veh, ZBTB11 / RFU, TAMM41 / Fold change vs veh, TAMM41 / RFU, KIAA1704 /// LOC100996395 / Fold change vs veh, KIAA1704 /// LOC100996395 / RFU, ING1 / Fold change vs veh, ING1 / RFU, TRMT61B / Fold change vs veh, TRMT61B / RFU, FUBP3 / Fold change vs veh, FUBP3 / RFU, TP53 / Fold change vs veh, TP53 / RFU, TNKS2 / Fold change vs veh, TNKS2 / RFU, ZFP14 / Fold change vs veh, ZFP14 / RFU, ACTR2 / Fold change vs veh, ACTR2 / RFU, PPP3R1 / Fold change vs veh, PPP3R1 / RFU, PIK3R1 / Fold change vs veh, PIK3R1 / RFU, HNRNPA1 / Fold change vs veh, HNRNPA1 / RFU, RNF170 / Fold change vs veh, RNF170 / RFU, ZNF28 / Fold change vs veh, ZNF28 / RFU, RNGTT / Fold change vs veh, RNGTT / RFU, OGT / Fold change vs veh, OGT / RFU, BRD1 / Fold change vs veh, BRD1 / RFU, MARS / Fold change vs veh, MARS / RFU, ZNF655 / Fold change vs veh, ZNF655 / RFU, FAHD1 / Fold change vs veh, FAHD1 / RFU, BDP1 / Fold change vs veh, BDP1 / RFU, LRRCC1 / Fold change vs veh, LRRCC1 / RFU, ARID1A / Fold change vs veh, ARID1A / RFU, ZNF146 / Fold change vs veh, ZNF146 / RFU, ZNF330 / Fold change vs veh, ZNF330 / RFU, GPN3 / Fold change vs veh, GPN3 / RFU, C9orf123 / Fold change vs veh, C9orf123 / RFU, N4BP2L2 / Fold change vs veh, N4BP2L2 / RFU, ARFIP1 / Fold change vs veh, ARFIP1 / RFU, FAM179B / Fold change vs veh, FAM179B / RFU, BCL10 / Fold change vs veh, BCL10 / RFU, UHRF1BP1L / Fold change vs veh, UHRF1BP1L / RFU, BET1 / Fold change vs veh, BET1 / RFU, CNOT2 / Fold change vs veh, CNOT2 / RFU, ZNF268 / Fold change vs veh, ZNF268 / Fold change vs veh, ZNF507 / RFU, DGCR2 / Fold change vs veh, DGCR2 / RFU, WDSUB1 / Fold change vs veh, WDSUB1 / Fold change vs veh, HSP90B1 /// MIR3652 / RFU, ADSS / Fold change vs veh, ADSS / RFU, GK / Fold change vs veh, GK / RFU, ZNF148 / Fold change vs veh, ZNF148 / RFU, TAF9 / Fold change vs veh, TAF9 / RFU, SLC1A5 / Fold change vs veh, SLC1A5 / RFU, SLMO2 / Fold change vs veh, SLMO2 / RFU, ABCC4 / Fold change vs veh, ABCC4 / RFU, LOC101060439 /// RAP1B / Fold change vs veh, LOC101060439 /// RAP1B / RFU, RFX7 / Fold change vs veh, RFX7 / RFU, GTPBP10 / Fold change vs veh, GTPBP10 / RFU, CNEP1R1 / Fold change vs veh, CNEP1R1 / RFU, BIVM-ERCC5 /// ERCC5 / Fold change vs veh, BIVM-ERCC5 /// ERCC5 / RFU, ILF3 / Fold change vs veh, ILF3 / RFU 11762660_at / Fold change /veh 11762660_at / RFU VCAN (11757783_s_at) / Fold change /veh VCAN (11757783_s_at) / RFU DDX43 (11728927_at) / Fold change /veh DDX43 (11728927_at) / RFU KRT8 (11758188_x_at) / Fold change /veh KRT8 (11758188_x_at) / RFU NKD1 (11759106_at) / Fold change /veh NKD1 (11759106_at) / RFU SRD5A1 (11742802_a_at) / Fold change /veh SRD5A1 (11742802_a_at) / RFU TPSAB1 /// TPSB2 (11721975_s_at) / Fold change /veh TPSAB1 /// TPSB2 (11721975_s_at) / RFU GSTM3 (11746129_a_at) / Fold change /veh GSTM3 (11746129_a_at) / RFU IL23R (11737362_x_at) / Fold change /veh IL23R (11737362_x_at) / RFU TMEM51 (11727254_a_at) / Fold change /veh TMEM51 (11727254_a_at) / RFU PIWIL2 (11732686_x_at) / Fold change /veh PIWIL2 (11732686_x_at) / RFU ORM1 (11744905_x_at) / Fold change /veh ORM1 (11744905_x_at) / RFU CCDC152 (11743942_at) / Fold change /veh CCDC152 (11743942_at) / RFU ECM1 (11717891_a_at) / Fold change /veh ECM1 (11717891_a_at) / RFU IL23R (11748794_a_at) / Fold change /veh IL23R (11748794_a_at) / RFU TNFAIP8L3 (11732012_x_at) / Fold change /veh TNFAIP8L3 (11732012_x_at) / RFU MBOAT4 (11741988_at) / Fold change /veh MBOAT4 (11741988_at) / RFU 11764193_at / Fold change /veh 11764193_at / RFU TMEM53 (11763286_at) / Fold change /veh TMEM53 (11763286_at) / RFU MAGEB2 (11727129_at) / Fold change /veh MAGEB2 (11727129_at) / RFU TMEM200A (11744735_a_at) / Fold change /veh TMEM200A (11744735_a_at) / RFU CCDC152 (11751479_a_at) / Fold change /veh CCDC152 (11751479_a_at) / RFU FAM211A (11726209_a_at) / Fold change /veh FAM211A (11726209_a_at) / RFU RGS16 (11746705_a_at) / Fold change /veh RGS16 (11746705_a_at) / RFU VCAN (11755009_s_at) / Fold change /veh VCAN (11755009_s_at) / RFU RHOB (11743442_s_at) / Fold change /veh RHOB (11743442_s_at) / RFU RGS16 (11720943_a_at) / Fold change /veh RGS16 (11720943_a_at) / RFU RGS16 (11720944_at) / Fold change /veh RGS16 (11720944_at) / RFU, VPS4B / Fold change vs veh, VPS4B / RFU, CREB1 / Fold change vs veh, CREB1 / RFU, DNAJC13 / Fold change vs veh, DNAJC13 / RFU, GNAQ / Fold change vs veh, GNAQ / RFU, CDK5R1 / Fold change vs veh, CDK5R1 / RFU, ZRANB3 / Fold change vs veh, ZRANB3 / RFU, CUL4A / Fold change vs veh, CUL4A / RFU, CCNY / Fold change vs veh, CCNY / RFU, UFL1 / Fold change vs veh, UFL1 / RFU, COG3 / Fold change vs veh, COG3 / RFU, DIAPH2 / Fold change vs veh, DIAPH2 / RFU, SKA2 / Fold change vs veh, SKA2 / RFU, AFF3 / Fold change vs veh, AFF3 / RFU, LMF1 / Fold change vs veh, LMF1 / RFU, IPO11 / Fold change vs veh, IPO11 / RFU, DFFB / Fold change vs veh, DFFB / RFU, FOXP1 / Fold change vs veh, FOXP1 / RFU, CARD8 / Fold change vs veh, CARD8 / RFU, STRN3 / Fold change vs veh, STRN3 / RFU, ADK / Fold change vs veh, ADK / RFU, RASSF2 / Fold change vs veh, RASSF2 / RFU, WIPF1 / Fold change vs veh, WIPF1 / RFU, LARP1B / Fold change vs veh, LARP1B / RFU, RASA1 / Fold change vs veh, RASA1 / RFU, RB1 / Fold change vs veh, RB1 / RFU, PPFIA1 / Fold change vs veh, PPFIA1 / RFU, MAT2A / Fold change vs veh, MAT2A / RFU, CCT5 / Fold change vs veh, CCT5 / RFU, WDR92 / Fold change vs veh, WDR92 / RFU, CUX1 / Fold change vs veh, CUX1 / RFU, TTC7A / Fold change vs veh, TTC7A / RFU, TMEM135 / Fold change vs veh, TMEM135 / RFU, DEPTOR / Fold change vs veh, DEPTOR / RFU, CPM / Fold change vs veh, CPM / RFU, DNAJB6 / Fold change vs veh, DNAJB6 / RFU, CACNA2D3 / Fold change vs veh, CACNA2D3 / RFU, DTX4 / Fold change vs veh, DTX4 / RFU, TFCP2 / Fold change vs veh, TFCP2 / RFU, GMCL1 /// GMCL1P1 / Fold change vs veh, GMCL1 /// GMCL1P1 / RFU, AEBP2 / Fold change vs veh, AEBP2 / RFU, SNHG1 /// SNORD22 /// SNORD25 /// SNORD26 /// SNORD27 /// SNORD28 /// SNORD29 /// SNORD31 / Fold change vs veh, SNHG1 /// SNORD22 /// SNORD25 /// SNORD26 /// SNORD27 /// SNORD28 /// SNORD29 /// SNORD31 / Fold change (Aza/veh), C12orf56 (ProbeSet 11735607_a_at) / Fold change (ACY-1035/veh), C12orf56 (ProbeSet 11735607_a_at) / Fold change (Aza/veh), FGFR1OP (ProbeSet 11751329_s_at) / Fold change (ACY-1035/veh), FGFR1OP (ProbeSet 11751329_s_at) / Fold change (Aza/veh), VPS36 (ProbeSet 11739960_a_at) / Fold change (ACY-1035/veh), VPS36 (ProbeSet 11739960_a_at) / RFU SYPL1 (11715823_x_at) / Fold change /veh SYPL1 (11715823_x_at) / RFU IGFBP7 (11715501_s_at) / Fold change /veh IGFBP7 (11715501_s_at) / RFU REEP3 (11722064_at) / Fold change /veh REEP3 (11722064_at) / RFU IGLL1 (11728026_x_at) / Fold change /veh IGLL1 (11728026_x_at): dose or concentration left out as unconfirmed
Details: MV-4-11 cells, 48 hours

For `Nc1ccc(-c2cccs2)cc1NC(=O)c1ccc2c(c1)cc(C1CC1)n2CCN1CCOCC1` [ACY-1035], the “RFU ISYNA1 (11749810_s_at)” value was 21.49 RFU.
